Data on four compounds can be found in US11732007B2, “Therapeutic compounds and methods” (The Regents of the University of California, priority 2020, dated 2023).

For one data set, the target named is T1, hMMP-12 (Homo sapiens, UniProt P39900).
T1 construct: The catalytic domain (Gly106-Gly263) of human macrophage metalloelastase (hMMP-12); made in house; host or cells: E. coli BL21 Codon Plus (pET21 vector, NdeI/BamHI)
Put plainly: SensoLyte 520 MMP-12 fluorimetric enzyme inhibition assay. To be noted: for IC50: catalytic domain, tested side by side. Type of data set: biochemical.

The target in another data set is T2, MMP-1 (Homo sapiens, UniProt P03956).
T2 construct: purchased AnaSpec AS-55575-1
T2 sequence (P03956 100-269 limits assumed): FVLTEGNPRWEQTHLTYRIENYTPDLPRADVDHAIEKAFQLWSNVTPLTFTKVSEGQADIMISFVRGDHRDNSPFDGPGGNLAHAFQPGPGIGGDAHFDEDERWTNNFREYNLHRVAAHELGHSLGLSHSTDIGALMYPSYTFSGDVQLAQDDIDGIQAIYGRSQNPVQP
The experiment in a line: SensoLyte 520 fluorimetric selectivity assay, MMP-1. The data set is classed as biochemical. Particulars: agents tested at 25 nM or at 4 nM. The protocol:
(§1) FIG. 2. […] For each indicated enzyme, agents were tested at 25 nM or at 4 nM and percent inhibition was measured using the catalytic domains of the respective enzyme and the SensoLyte® 520 Fluorimetric Assay Kit (Anaspec).
(§2) Enzymatic assays to profile the inhibitory effects of all the compounds on hMMP-12, and against a panel of 5 closely related MMPs (MMP-1, MMP-3, MMP-9, MMP-13, and MMP-14) were performed using the SensoLyte® 520 Fluorimetric Assay Kit (AnaSpec) for each MMPs. Assay kit for MMP-12 Cat. #AS-71157, MMP-1 Cat. #AS-71150, MMP-3 Cat. #AS-71152, MMP-9 Cat. #AS-71155, MMP-13 Cat. #AS-71156, and MMP-14 Cat. #AS-72025. The assay was performed according to their protocols. Briefly, 10 ng of each MMPs were incubated on a black flat-bottom 96-well plate (Cat. #9502867) at RT for 15 minutes in absence or in presence of different concentration of each compound in a total volume of 50 μL. After 15 minutes, 50 μL of each substrate solution were added. The reagents were mixed together by shaking the plate gently for 30 sec. Immediately after the fluorescence was measured using the VICTOR X5 microplate reader (PerkinElmer) every 3 min for 60 min. All the measurement were performed in duplicates. The IC50 values were calculated from dose-response curves using GraphPad Prism 7.

A further data set has as its target T3, MMP-3 (Homo sapiens, UniProt P08254).
T3 construct: purchased AnaSpec 72006
Put plainly: SensoLyte 520 fluorimetric selectivity assay, MMP-3. Type of data set: biochemical. Particulars: agents tested at 25 nM or at 4 nM. How it is done:
as §1, §2

A further data set concerns the target T4, MMP-9 (Homo sapiens, UniProt P14780).
T4 construct: purchased AnaSpec AS-55576-1
The experiment in a line: SensoLyte 520 fluorimetric selectivity assay, MMP-9. Type of data set: biochemical. Particulars: agents tested at 25 nM or at 4 nM. How it is done:
as §1, §2

The target in the next data set is T5, MMP-13 (Homo sapiens, UniProt P45452).
T5 construct: purchased AnaSpec AS-72257
Put plainly: SensoLyte 520 fluorimetric selectivity assay, MMP-13. The data set is classed as biochemical. Particulars: agents tested at 25 nM or at 4 nM. The protocol: as §1, §2

A further data set addresses T6, MMP-14 (Homo sapiens, UniProt P50281).
T6 construct: purchased AnaSpec AS-72068
Put plainly: SensoLyte 520 fluorimetric selectivity assay, MMP-14. The data set is classed as biochemical. Particulars: agents tested at 25 nM or at 4 nM. How it is done: as §1, §2

Data set [1] is described as follows: Preliminary pharmacokinetic study in mice. The data set is classed as in vivo, Balb-C mice. How it is done: (§3) Compound 25 was administered i.p. (30 mg/kg) to 5 Balb-C mice. Retrorbital bleeding was used to collect blood samples at times 30 min, 1 h, 2 h, 4 h, 8 h, and 24 h and the samples analyzed for compound 25 plasma concentration via extraction followed by LC/MS and compared to a standard calibration curve prepared with purified agent. Compound 25 was soluble in 10% DMSO, 40% PEG400, and 10% (2-hydroxypropyl)-Beta-cyclodextrin in PBS. Mice weight varied between 22 g and 26 g, each receiving approximately 200 μL (weight adjusted to administer 30 mg/Kg of compound 25) of formulated agent. The experiments were conducted at the University of California San Diego in vivo pharmacology core facility, according to a UCSD Institutional Animal Care and Use Committee (IACUC) approved protocol.

Data set [2] relates to murine model of elastase-induced emphysema. The experiment in a line: Murine model of elastase-induced emphysema, mean linear intercept analysis. The data set is classed as in vivo, C57BL/6 mice. To be noted: i.p. once daily for 7 days from day 2 after PPE, day 21. The protocol: C57BL/6 mice were purchased from Jackson Laboratories (Bar Harbor, Me.) and maintained in a pathogen-free vivarium at room temperature with 12-hour light/dark cycles. All mice were 6-8 weeks and both male and female mice were used for the experiment. All animal-use and euthanasia protocols were approved by the UC Riverside Institutional Animal Care and Use Committee (IACUC).
C57BL/6 mice were given a single intranasal instillation with 50 μl of saline or 0.9 U porcine pancreas elastase (Sigma-Aldrich, St. Louis, Mo.) diluted in phosphate buffered saline (IX PBS). Two days following the instillation, mice were treated with 200 μl of vehicle control, MMP-408, compound 25, or compound 26 via intraperitoneal injection. Mice were continually given treatment once a day for 7 consecutive days. Twenty-one days following the initial intranasal instillation, mice were sacrificed. Bronchoalveolar lavage fluid (BALF) was collected by making an incision in the trachea and inserting a cannula with syringe (BD Biosciences, CA), then washing with 1 mL of cold PBS three times. BALF was centrifuged at 1200 RPM for 5 minutes, then cell pellets were combined and resuspended in 200 μl of PBS to be used in cell counts and cell differential analysis. The lungs were isolated, slowly filled with 1 mL of 10% formalin then hung in formalin overnight for fixation. The following day, lungs were moved into 70% ethanol and stored at 4° C. until paraffin-embedding.
Mouse lungs were fixed in formalin and paraffin-embedded, then sectioned and stained in hematoxylin and eosin by the University of California Irvine Department of Pathology Experimental Tissue Resource Core Facility. The lungs were imaged on a Revolve light microscope (La Jolla, Calif.) at 10× magnification. MLI measurements were calculated using an established indirect method on ImageJ software. Briefly, alveolar walls/intersections were counted along a line of known length, then length was divided by the number of intersections to calculate MLI. This process was repeated for a total of five MLI measurements per image, with there being four images per mouse lung. The average MLI measurement for each lung was calculated and statistically analyzed using GraphPad Prism software (San Diego, Calif.).

Data set [3] in a line: Solubility in dosing formulation. The data set is classed as physicochemical. Particulars: 10% DMSO, 40% PEG400, 10% (2-hydroxypropyl)-Beta-cyclodextrin in PBS. The protocol:
as §3

Setting [4] is: 30 mg/kg intraperitoneally, mice.

T3 sequence (P08254 100-272 limits assumed): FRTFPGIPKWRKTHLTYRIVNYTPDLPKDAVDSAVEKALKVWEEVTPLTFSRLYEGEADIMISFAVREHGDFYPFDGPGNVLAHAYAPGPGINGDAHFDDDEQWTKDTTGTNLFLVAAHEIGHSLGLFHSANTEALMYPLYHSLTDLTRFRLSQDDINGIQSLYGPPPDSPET
T1 sequence (P39900 106-263): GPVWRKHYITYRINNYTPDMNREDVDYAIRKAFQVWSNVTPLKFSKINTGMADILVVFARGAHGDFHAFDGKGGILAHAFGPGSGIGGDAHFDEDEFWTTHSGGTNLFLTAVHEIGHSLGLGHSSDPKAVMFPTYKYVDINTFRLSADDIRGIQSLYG
T4 sequence (P14780 107-444 limits assumed): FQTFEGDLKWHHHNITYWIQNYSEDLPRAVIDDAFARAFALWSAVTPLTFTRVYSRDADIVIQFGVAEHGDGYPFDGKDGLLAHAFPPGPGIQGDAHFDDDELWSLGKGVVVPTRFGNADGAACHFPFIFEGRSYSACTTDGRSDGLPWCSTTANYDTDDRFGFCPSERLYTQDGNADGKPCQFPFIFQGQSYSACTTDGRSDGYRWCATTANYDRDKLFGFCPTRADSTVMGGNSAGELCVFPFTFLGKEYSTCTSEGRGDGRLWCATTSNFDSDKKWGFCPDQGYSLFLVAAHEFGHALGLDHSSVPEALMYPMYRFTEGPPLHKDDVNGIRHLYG

As a reminder, the IC50 is the midpoint of a concentration-inhibition curve. A lower IC50 goes with inhibition by little substance. On to `COc1ccc(CC[C@@H](NC(=O)[C@H](CCCc2ccccc2)NC(=O)CN2CCOCC2)C(=O)N[C@H](Cc2ccc(C)cc2)C(=O)NO)cc1` [Compound 25], for which, at hMMP-12, the “mode of MMP-12 inhibition” value is on record as “competitive inhibitors” and the IC50 is roughly 4 nM. Also, the “inhibition of MMP-1” value on MMP-1 is on record as “did not display significant inhibition”. For the same compound, on MMP-3, the “inhibition of MMP-3” value is listed as “appreciable inhibition”. Besides, at MMP-9, the “inhibition of MMP-9” value is given as “did not display significant inhibition”. For the same compound, the “inhibition of MMP-13” value against MMP-13 is “did not display significant inhibition”. Moreover, the “inhibition of MMP-14” value on MMP-14 was “did not display significant inhibition”. In data set [1] (setting [4]), the “peak plasma drug concentration” value is roughly 400 ng/mL and the “peak plasma drug concentration (molar)” value is reported as roughly 580 nM. The “peak plasma concentration relative to in vitro IC90” value in data set [1] (mouse, in vivo) is greater than 20 times. Besides, in data set [2], the “MLI measurements compared to saline (no PPE)-treated mice” value is “no significant differences” and the “emphysema-like pathology compared to PPE+vehicle-treated mice” value was “significant decrease”. Besides, in data set [3], the solubility in formulation entry is “soluble”.
For `COc1ccc(CCC[C@H](NC(=O)CN2CCOCC2)C(=O)N[C@H](CCc2ccc(OC)cc2)C(=O)N[C@H](Cc2ccc(C)cc2)C(=O)NO)cc1` [Compound 26], at hMMP-12, the “mode of MMP-12 inhibition” value is “competitive inhibitors” and the IC50 is roughly 4 nM. Further, the “inhibition of MMP-1” value on MMP-1 is recorded as “did not display significant inhibition”. The “inhibition of MMP-3” value at MMP-3 is “appreciable inhibition”. Further, the “inhibition of MMP-9” value against MMP-9 is on record as “did not display significant inhibition”. Further, at MMP-13, the “inhibition of MMP-13” value is recorded as “did not display significant inhibition”. Also, the “inhibition of MMP-14” value at MMP-14 is recorded as “did not display significant inhibition”. Besides, in data set [2], the “MLI measurements compared to saline (no PPE)-treated mice” value was “no significant differences” and the “emphysema-like pathology compared to PPE+vehicle-treated mice” value is recorded as “significant decrease”.
Regarding `CNC(=O)[C@H](Cc1c[nH]c2ccccc12)NC(=O)[C@@H](CC(=O)NO)CC(C)C` [GM6001, reference compound], at hMMP-12, the IC50 was roughly 2.5 nM. For the same compound, the “inhibition of MMP-3” value against MMP-3 is “appreciable inhibition”.
With `COC(=O)Nc1ccc2oc3cc(S(=O)(=O)N[C@H](C(=O)O)C(C)C)ccc3c2c1` [MMP408, reference compound], in data set [2], the “MLI measurements compared to saline (no PPE)-treated mice” value is given as “no significant differences” and the “emphysema-like pathology compared to PPE+vehicle-treated mice” value is listed as “significant decrease”.
